Paper PMC4664966, “Discovery and characterization of novel inhibitors of the sodium-coupled citrate transporter (NaCT or SLC13A5)” (Scientific Reports, 2015)
In brackets after ≈: the same amount, converted by molar mass. Entries after “also recorded” stand apart in the source; their conditions may differ.

Tests used:
[1] = biological target: Serotonin receptor 1B (5-HT1B) (Homo sapiens, UniProt P28222); assay: Selectivity data (Table S1); type: binding
[2] = biological target: Lymphocyte-specific protein tyrosine kinase (LCK) (Homo sapiens, UniProt P06239); assay: Selectivity data (Table S1); type: biochemical
Chain of Lymphocyte-specific protein tyrosine kinase (LCK) (P06239 whole entry): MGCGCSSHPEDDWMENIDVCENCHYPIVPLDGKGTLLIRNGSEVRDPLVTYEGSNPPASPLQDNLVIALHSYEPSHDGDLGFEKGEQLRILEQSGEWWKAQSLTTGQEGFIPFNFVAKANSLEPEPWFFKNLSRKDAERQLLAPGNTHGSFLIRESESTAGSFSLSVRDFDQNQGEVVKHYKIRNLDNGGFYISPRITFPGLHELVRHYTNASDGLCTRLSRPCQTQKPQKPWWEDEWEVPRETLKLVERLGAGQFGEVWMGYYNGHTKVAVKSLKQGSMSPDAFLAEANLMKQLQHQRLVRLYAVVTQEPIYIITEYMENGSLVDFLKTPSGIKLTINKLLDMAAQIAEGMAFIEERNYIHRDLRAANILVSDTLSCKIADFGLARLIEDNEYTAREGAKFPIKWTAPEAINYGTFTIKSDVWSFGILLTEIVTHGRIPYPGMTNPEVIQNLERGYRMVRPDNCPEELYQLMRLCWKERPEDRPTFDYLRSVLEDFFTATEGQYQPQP

[3] = biological target: Phosphodiesterase 3B (PDE3B) (Homo sapiens, UniProt Q13370); assay: Selectivity data (Table S1); type: biochemical
Histamine receptor (H3) = Histamine receptor (H3) (Homo sapiens, UniProt Q9Y5N1); assay: Selectivity data (Table S1); type: binding
CYP3A4 = CYP3A4 (Homo sapiens, UniProt P08684); assay: Selectivity data (Table S1); type: in vitro ADME; conditions: 3 µM
[4] = biological target: Cytochrome P450 3A4 (CYP3A4) (Homo sapiens, UniProt P08684); assay: Selectivity data (Table S1); type: in vitro ADME
mice fed a HFD = assay: Chronic treatment of mice fed a HFD (OGTT, hepatic lipids)
Method: In studies requiring chronic treatment with compound, mice were purchased at 18 weeks of age following 13 weeks of HFD administration (D12459i; 60% of the calories from fat). Mice were maintained on HFD for the duration of the study in a 12:12-h light/dark cycle. […] To perform an oral glucose tolerance test (day 20 of dosing), mice were fasted at 6:00 AM to 12:00 PM and administered P.O. 1.5 g/kg at 12:00 PM. Glucose concentrations were determined using an AlphaTrak (Abbott Laboratories) at 0, 15, 30, 60, and 90 minutes. […] Hepatic lipids were measured by LC-MS/MS as previously described[42].

[5] = biological target: Potassium voltage-gated channel, KQT-like subfamily, member 1 (KCNQ1) (Homo sapiens, UniProt P51787); assay: in vitro
Androgen receptor = Androgen receptor (Homo sapiens, UniProt P10275); assay: Selectivity data (Table S1); type: binding
Chain of Androgen receptor (P10275 whole entry): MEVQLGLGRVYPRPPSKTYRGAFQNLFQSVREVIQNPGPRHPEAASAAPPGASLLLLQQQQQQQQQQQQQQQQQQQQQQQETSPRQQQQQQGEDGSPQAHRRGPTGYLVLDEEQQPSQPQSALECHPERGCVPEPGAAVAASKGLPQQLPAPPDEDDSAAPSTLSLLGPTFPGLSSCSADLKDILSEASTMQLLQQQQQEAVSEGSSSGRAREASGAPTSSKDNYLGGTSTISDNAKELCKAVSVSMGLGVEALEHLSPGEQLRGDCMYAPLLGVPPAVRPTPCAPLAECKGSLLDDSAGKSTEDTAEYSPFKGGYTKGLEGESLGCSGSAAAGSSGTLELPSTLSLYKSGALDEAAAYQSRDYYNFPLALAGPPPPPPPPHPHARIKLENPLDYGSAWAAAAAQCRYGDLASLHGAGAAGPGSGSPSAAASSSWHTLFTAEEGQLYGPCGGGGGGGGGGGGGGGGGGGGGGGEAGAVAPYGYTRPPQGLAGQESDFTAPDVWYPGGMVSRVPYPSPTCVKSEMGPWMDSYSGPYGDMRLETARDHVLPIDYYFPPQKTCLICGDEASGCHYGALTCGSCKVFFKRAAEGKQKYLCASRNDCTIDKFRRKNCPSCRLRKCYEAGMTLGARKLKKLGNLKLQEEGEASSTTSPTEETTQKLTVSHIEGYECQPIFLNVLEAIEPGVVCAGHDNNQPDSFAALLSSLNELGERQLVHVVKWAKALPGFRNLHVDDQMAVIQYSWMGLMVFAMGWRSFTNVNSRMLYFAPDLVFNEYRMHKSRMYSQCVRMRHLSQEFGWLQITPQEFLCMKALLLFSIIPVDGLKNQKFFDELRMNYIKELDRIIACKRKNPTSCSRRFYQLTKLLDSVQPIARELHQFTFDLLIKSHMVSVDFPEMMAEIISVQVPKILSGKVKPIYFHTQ

[6] = biological target: Serotonin receptor 4e (5-HT4e) (Homo sapiens, UniProt Q13639); assay: Selectivity data (Table S1); type: binding
[7] = biological target: Gamma-aminobutyric acid receptor A, alpha 1 (GABRA1) (Homo sapiens, UniProt P14867+P47870); assay: Selectivity data (Table S1); type: binding
[8] = biological target: Phosphodiesterase 4D3 (PDE4D3) (Homo sapiens, UniProt Q08499); assay: Selectivity data (Table S1); type: biochemical
[9] = biological target: Angiotensin II receptor type 1 (AGTR1) (Homo sapiens, UniProt P30556); assay: Selectivity data (Table S1); type: binding
[10] = biological target: Serotonin receptor 1A (5-HT1A) (Homo sapiens, UniProt P08908); assay: Selectivity data (Table S1); type: binding
Chain of Serotonin receptor 1A (5-HT1A) (P08908 whole entry, the tested form may be a part): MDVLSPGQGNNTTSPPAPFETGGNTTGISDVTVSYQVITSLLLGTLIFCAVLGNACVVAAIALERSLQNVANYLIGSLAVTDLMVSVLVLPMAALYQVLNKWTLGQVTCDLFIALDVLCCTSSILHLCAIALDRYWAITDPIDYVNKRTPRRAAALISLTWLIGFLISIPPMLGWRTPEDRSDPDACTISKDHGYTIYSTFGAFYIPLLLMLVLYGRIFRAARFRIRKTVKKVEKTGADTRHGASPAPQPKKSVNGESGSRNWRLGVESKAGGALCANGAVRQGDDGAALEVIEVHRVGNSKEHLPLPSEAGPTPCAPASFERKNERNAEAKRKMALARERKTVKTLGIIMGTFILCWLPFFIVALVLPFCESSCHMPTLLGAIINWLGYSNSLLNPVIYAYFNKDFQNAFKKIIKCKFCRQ

[11] = Steady state intravenous infusion in rat, tissue distribution
[12] = biological target: Peroxisome proliferator activated receptor gamma (PPAR-gamma) (Homo sapiens, UniProt P37231); assay: Selectivity data (Table S1); type: binding
[13] = biological target: Adrenergic receptor, alpha-1A (ADRA1A) (Homo sapiens, UniProt P35348); assay: Selectivity data (Table S1); type: binding
[14] = biological target: Opioid receptor, mu (MOP) (Homo sapiens, UniProt P35372); assay: Selectivity data (Table S1); type: binding
[15] = biological target: Mitogen-activated protein kinase 14 (MAPK14 / P38-alpha) (Homo sapiens, UniProt Q16539); assay: Selectivity data (Table S1); type: biochemical
[16] = biological target: Glucocorticoid receptor (GR) (Homo sapiens, UniProt P04150); assay: Selectivity data (Table S1); type: binding
[17] = biological target: Human ether-a-go-go (hERG) (Homo sapiens, UniProt Q12809); assay: Selectivity data (Table S1)
Chain of Human ether-a-go-go (hERG) (Q12809 whole entry): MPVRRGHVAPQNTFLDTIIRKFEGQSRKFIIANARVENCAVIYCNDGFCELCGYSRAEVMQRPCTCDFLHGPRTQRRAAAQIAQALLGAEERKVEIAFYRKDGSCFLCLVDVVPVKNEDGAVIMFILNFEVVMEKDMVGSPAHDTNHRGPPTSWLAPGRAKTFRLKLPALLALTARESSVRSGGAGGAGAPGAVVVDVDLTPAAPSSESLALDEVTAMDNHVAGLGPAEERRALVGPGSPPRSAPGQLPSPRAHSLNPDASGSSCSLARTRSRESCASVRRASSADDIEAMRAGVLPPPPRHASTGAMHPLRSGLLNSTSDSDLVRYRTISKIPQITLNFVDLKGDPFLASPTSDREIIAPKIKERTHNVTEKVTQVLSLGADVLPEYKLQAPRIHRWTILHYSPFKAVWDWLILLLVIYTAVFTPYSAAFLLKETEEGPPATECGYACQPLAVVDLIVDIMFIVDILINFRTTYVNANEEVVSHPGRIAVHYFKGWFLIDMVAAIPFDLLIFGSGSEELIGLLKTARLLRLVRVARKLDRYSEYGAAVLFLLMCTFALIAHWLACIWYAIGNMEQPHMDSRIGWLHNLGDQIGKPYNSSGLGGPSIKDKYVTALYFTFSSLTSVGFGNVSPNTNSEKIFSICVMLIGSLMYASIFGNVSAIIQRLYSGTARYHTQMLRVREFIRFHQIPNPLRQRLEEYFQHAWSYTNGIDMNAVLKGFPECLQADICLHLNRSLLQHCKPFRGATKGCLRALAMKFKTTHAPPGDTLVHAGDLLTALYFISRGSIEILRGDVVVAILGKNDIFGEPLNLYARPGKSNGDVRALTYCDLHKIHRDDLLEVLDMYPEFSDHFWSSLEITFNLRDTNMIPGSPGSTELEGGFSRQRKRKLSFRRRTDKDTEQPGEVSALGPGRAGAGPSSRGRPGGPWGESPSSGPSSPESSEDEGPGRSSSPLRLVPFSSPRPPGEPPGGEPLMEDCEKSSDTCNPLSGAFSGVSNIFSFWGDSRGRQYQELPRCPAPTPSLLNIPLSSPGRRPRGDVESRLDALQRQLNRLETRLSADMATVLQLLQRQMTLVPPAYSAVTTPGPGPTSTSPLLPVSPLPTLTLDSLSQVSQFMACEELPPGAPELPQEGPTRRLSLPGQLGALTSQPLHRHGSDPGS

[18] = biological target: Noradrenaline transporter, sodium-dependent (NAT) (Homo sapiens, UniProt P23975); assay: Selectivity data (Table S1)
[19] = biological target: Opioid receptor, kappa 1 (OPRK1) (Homo sapiens, UniProt P41145); assay: Selectivity data (Table S1); type: binding
Chain of Opioid receptor, kappa 1 (OPRK1) (P41145 whole entry): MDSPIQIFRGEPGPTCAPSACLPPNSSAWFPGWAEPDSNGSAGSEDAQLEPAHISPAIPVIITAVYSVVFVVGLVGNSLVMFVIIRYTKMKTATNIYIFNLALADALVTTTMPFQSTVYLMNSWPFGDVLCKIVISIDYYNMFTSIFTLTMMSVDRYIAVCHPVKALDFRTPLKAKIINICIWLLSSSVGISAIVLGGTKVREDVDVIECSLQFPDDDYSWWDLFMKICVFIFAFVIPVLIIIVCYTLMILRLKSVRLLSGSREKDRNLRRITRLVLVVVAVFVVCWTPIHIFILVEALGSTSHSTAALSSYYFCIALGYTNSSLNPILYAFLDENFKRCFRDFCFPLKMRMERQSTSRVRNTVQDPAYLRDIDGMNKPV

DIO mice = assay: Plasma glucose concentrations in DIO mice, acute or sub-chronic dosing; conditions: single 250 mg/kg dose or 3 days 250 mg/kg BID
ATP-citrate lyase = ATP-citrate lyase (Homo sapiens, UniProt P53396); assay: ATP-citrate lyase interaction/inhibition; type: biochemical
Chain of ATP-citrate lyase (P53396 whole entry): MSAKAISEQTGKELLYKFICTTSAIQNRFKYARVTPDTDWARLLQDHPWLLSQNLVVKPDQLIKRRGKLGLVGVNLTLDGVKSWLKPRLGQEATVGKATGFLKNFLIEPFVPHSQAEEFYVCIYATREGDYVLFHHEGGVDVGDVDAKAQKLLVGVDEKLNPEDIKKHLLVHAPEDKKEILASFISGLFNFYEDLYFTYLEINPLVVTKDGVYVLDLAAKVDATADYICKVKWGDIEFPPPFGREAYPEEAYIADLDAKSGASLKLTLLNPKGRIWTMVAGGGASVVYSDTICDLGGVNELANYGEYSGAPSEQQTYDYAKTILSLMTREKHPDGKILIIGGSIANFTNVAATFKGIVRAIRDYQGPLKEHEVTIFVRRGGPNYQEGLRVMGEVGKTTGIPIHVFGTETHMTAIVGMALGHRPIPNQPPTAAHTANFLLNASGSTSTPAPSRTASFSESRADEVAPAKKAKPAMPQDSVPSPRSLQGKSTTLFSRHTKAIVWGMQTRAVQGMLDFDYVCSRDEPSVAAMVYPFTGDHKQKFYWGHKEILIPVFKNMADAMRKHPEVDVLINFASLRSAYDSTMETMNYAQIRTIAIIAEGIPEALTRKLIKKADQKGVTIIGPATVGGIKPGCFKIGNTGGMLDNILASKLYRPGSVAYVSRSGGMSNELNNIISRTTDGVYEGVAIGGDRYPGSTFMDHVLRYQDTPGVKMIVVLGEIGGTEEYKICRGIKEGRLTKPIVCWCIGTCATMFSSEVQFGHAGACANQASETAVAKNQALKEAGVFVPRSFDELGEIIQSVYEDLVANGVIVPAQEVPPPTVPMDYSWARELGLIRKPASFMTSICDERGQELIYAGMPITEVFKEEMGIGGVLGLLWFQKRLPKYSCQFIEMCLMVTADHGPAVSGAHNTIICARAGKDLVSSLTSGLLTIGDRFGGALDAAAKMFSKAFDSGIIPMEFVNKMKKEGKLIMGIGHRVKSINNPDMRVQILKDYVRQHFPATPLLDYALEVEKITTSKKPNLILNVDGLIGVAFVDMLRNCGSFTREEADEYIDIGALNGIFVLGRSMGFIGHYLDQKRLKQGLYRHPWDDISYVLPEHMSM

[20] = biological target: Cannabinoid receptor 1 (CB1) (Homo sapiens, UniProt P21554); assay: Selectivity data (Table S1); type: binding
[21] = biological target: Phosphodiesterase 4D (PDE4D) (Homo sapiens, UniProt Q08499); assay: Selectivity data (Table S1); type: biochemical
HepG2 cells = assay: Cellular toxicity in HepG2 cells; type: cell-based; conditions: concentrations up to 300 μM and 72 hours incubation
[22] = biological target: Monoacylglycerol acyltransferase 3 (MGAT3) (Homo sapiens, UniProt Q86VF5); assay: Selectivity data (Table S1); type: biochemical
Aqueous solubility = type: physicochemical; conditions: aqueous medium at pH 7.4, pH 7.4, aqueous buffer; read-out: Solubility7.4
[23] = biological target: Diacylglycerol acyltransferase 2 (DGAT2) (Homo sapiens, UniProt Q96PD7); assay: Selectivity data (Table S1); type: biochemical
[24] = biological target: Nicotinic acetylcholine receptor complex (alpha-4 / beta-2) (Homo sapiens, UniProt P17787+P43681); assay: Selectivity data (Table S1); type: binding
[25] = biological target: Adrenergic receptor, alpha-2B (ADRA2B) (Homo sapiens, UniProt P18089); assay: Selectivity data (Table S1); type: binding
Chain of Adrenergic receptor, alpha-2B (ADRA2B) (P18089 whole entry): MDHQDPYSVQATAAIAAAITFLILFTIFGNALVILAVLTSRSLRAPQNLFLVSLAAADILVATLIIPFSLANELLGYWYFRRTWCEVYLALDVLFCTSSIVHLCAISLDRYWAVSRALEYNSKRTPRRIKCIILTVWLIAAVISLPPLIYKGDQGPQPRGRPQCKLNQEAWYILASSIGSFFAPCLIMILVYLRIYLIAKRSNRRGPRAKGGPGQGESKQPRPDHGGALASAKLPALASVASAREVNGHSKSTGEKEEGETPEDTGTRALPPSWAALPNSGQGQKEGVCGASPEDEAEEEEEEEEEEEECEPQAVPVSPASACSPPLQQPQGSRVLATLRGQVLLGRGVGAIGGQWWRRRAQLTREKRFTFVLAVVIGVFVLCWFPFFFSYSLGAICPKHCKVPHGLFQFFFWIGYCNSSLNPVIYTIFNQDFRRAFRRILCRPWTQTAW

[26] = biological target: Histamine receptor 1 (H1) (Homo sapiens, UniProt P35367); assay: Selectivity data (Table S1); type: binding
pKa = type: physicochemical
[27] = HFD mice, 250 mg/kg BID for 21 days

## CC(C)(C)c1ccc(CC[C@@](O)(CC(=O)O)C(=O)O)cc1 [Compound 2]
[1]
  inhibition at 100 µM: < 10%
[2]
  inhibition at 100 µM: < 10%
[3]
  inhibition at 100 µM: < 10%
Histamine receptor (H3)
  inhibition at 100 µM: < 10%
CYP3A4
  inhibition at 3 µM: 12%
[4]
  interaction/inhibition of CYP3A4: no significant interaction/inhibition
Mice fed a HFD; HFD mice, 250 mg/kg BID
  plasma insulin concentrations area under the curve during OGTT: no differences
Mice fed a HFD; [27]
  hepatic TAG and DAG: trend for lower
  hepatic acylcarnitine: higher levels
  β-hydroxybutyrate concentrations: 0.49 ± 0.06 mmol/L
Mice fed a HFD; HFD mice, 250 mg/kg BID, day 20
  glucose intolerance during OGTT: completely reversed
Mice fed a HFD; during the in vivo experiments
  phenotype analogous to epileptic encephalopathy: no phenotype analogous to epileptic encephalopathy was observed
[5]
  inhibition at 10 µM: < 10%
Androgen receptor
  inhibition at 100 µM: < 10%
[6]
  inhibition at 100 µM: < 10%
[7]
  inhibition at 100 µM: < 10%
[8]
  IC50: > 30 µM
[9]
  inhibition at 100 µM: < 10%
[10]
  inhibition at 100 µM: < 10%
[11]; steady state intravenous infusion
  brain penetration: minimal brain penetration; also recorded: restricted in the brain
[11]; steady state intravenous infusion 0.27mg/kg/hour
  uptake in liver and kidney compared to plasma: significant uptake of the compound in the liver and kidney
[12]
  inhibition at 100 µM: < 10%
[13]
  inhibition at 100 µM: < 10%
[14]
  inhibition at 100 µM: < 10%
[15]
  inhibition at 100 µM: < 10%
[16]
  inhibition at 100 µM: < 10%
[17]
  IC50: > 100 µM
  interaction/inhibition of the hERG channel: no significant interaction/inhibition
[18]
  inhibition at 100 µM: < 10%
[19]
  inhibition at 100 µM: 13%
DIO mice
  plasma glucose concentrations: modest but significant reductions
ATP-citrate lyase
  interaction/inhibition of ATP-citrate lyase: no significant interaction/inhibition
[20]
  inhibition at 100 µM: < 10%
[21]
  inhibition at 100 µM: < 10%
HepG2 cells
  cellular toxicity: no observable toxicity
[22]
  IC50: > 50 µM
Aqueous solubility
  solubility: 33 mM (≈ 9710 µg/mL)
[23]
  IC50: > 50 µM
[24]
  inhibition at 100 µM: < 10%
[25]
  inhibition at 100 µM: < 10%
[26]
  inhibition at 100 µM: < 10%
pKa
  pKa: 3.1
